Source: patent US12721823B2, “Methods and compositions for treatment of low circulating testosterone conditions” (University of Florida Research Foundation, Inc., priority 2021, dated 2026)

Assays:
Sprague-Dawley rats = assay: Acute serum corticosterone 1 h after last sevoflurane exposure (ELISA); assay type: in vivo, rat; details: sevoflurane 3 h on P56, P58, P60, 1 h after last exposure, vs control
Experimental: Male and female rats in Generation 1 (G1) underwent anesthesia on postnatal days 56, 58 and 60. During this period, rats were held in a temperature-controlled chamber (+37° C.) with a continuous supply of 30% oxygen in air (1.5 L/min) during anesthesia-6% sevoflurane for 3 min for anesthesia induction and 2.1% sevoflurane for 177 min for anesthesia maintenance (the Sevoflurane group). Gas monitoring was performed using a calibrated Datex side stream analyzer (Datex-Ohmeda, Helsinki, Finland), which samples from the animal chamber interior. Rats in the G1 control group (Control) were not subjected to anesthesia. A subset of the rats in the G1 Control and Sevoflurane groups was sacrificed 1 h after the last exposure to sevoflurane (or equivalent timepoint in the Control group) to collect blood and brain tissue samples. FIG. 1 provides a schematic of experimental design. The remaining Control and Sevoflurane G1 male and female rats were mated on P85 to produce offspring (generation 2, G2). […] Serum corticosterone was measured using commercial ELISA kits (Cayman Chemical Company, Ann Arbor, MI, USA) according to the manufacturer's instructions. […] (FIGS. 2C-2F) Representative confocal images and quantitative analysis of the KCC2 immunoreactivity in the paraventricular nucleus (PVN) of the hypothalamus of the control and sevoflurane-exposed male (FIGS. 2C, 2E) and female (FIGS. 2D, 2F) rats. […]

KCC2 = assay: Immunofluorescence of cell surface KCC2 expression in the PVN of the hypothalamus; assay type: in vivo, rat; details: G1 male rats; 1 h after last exposure on P60; vs control
Experimental: Rats were anesthetized with sevoflurane and transcardially perfused with saline, followed by 4% paraformaldehyde (PFA) in 0.1 M phosphate buffer. The brains were collected and fixed in the 4% PFA overnight and then dehydrated in 30% sucrose solution in PBS at 4° C. for 2 days. The brains were cut into 18-um-thick coronal sections using a cryostat. After blocking with 10% norm goat serum for 1 h at room temperature, the slices were incubated with the primary antibody (rabbit anti-KCC2, 1:500; MilliporeSigma, Burlington, MA) in 10% norm goat serum at 4° C. overnight. After washing with PBS for 3×5 min, the slices were exposed to the secondary antibody, Alexafluor 549 goat anti-rabbit (Invitrogen, Carlsbad, CA). […] The immunofluorescence intensity of the KCC2-immunoreactive cells was measured using ImageJ software [National Institutes of Health (NIH)]. Three images from the PVN of the hypothalamus of each animal were taken and the average intensity values were calculated to use for statistical analysis. […] (FIGS. 2C-2F) Representative confocal images and quantitative analysis of the KCC2 immunoreactivity in the paraventricular nucleus (PVN) of the hypothalamus of the control and sevoflurane-exposed male (FIGS. 2C, 2E) and female (FIGS. 2D, 2F) rats. […]

## FCOC(C(F)(F)F)C(F)(F)F [sevoflurane, 1,1,1,3,3,3-hexafluoro-2-(fluoromethoxy)propane]
Sprague-Dawley rats; G1 female rats
  serum levels of corticosterone: significantly increased
Sprague-Dawley rats; G1 male rats
  serum levels of corticosterone: significantly increased
KCC2
  cell surface KCC2 expression (KCC2 density) in the PVN of the hypothalamus: reductions in KCC2 density
